What was measured:
Plasmepsin II = Plasmepsin II (Plasmodium falciparum, UniProt P46925); assay: Inhibition of Plasmodium falciparum plasmepsin 2 using DABCYL-Glu-Arg-Nle-Phe-Leu- Ser-Phe-Pro-EDANS fluorogenic substrate by fluorogenic assay
[1] = biological target: Cathepsin D (Homo sapiens) (UniProt P07339); assay: Inhibition of human liver Cathepsin D using KPIEF(nF)RL chromogenic substrate at 5 uM by absorbance assay
Plasmodium falciparum [2] = assay: Antimalarial activity against Plasmodium falciparum 3D7 infected in RBC assessed as parasite-specific lactate dehydrogenase release; assay type: functional, organism-based
[3] = Inhibition of Plasmodium falciparum plasmepsin 4 using DABCYL-Glu-Arg-Nle-Phe-Leu- Ser-Phe-Pro-EDANS fluorogenic substrate by fluorogenic assay
Plasmodium falciparum [4] = assay: Antimalarial activity against Plasmodium falciparum 3D7 infected in RBC assessed as parasite-specific lactate dehydrogenase release at 16 uM; assay type: functional
[5] = biological target: Plasmepsin II (Plasmodium falciparum) (UniProt P46925); assay: Inhibition of Plasmodium falciparum plasmepsin 2 using DABCYL-Glu-Arg-Nle-Phe-Leu- Ser-Phe-Pro-EDANS fluorogenic substrate at 5 uM by fluorogenic assay
Plasmodium falciparum [6] = assay: Inhibition of Plasmodium falciparum plasmepsin 4 using DABCYL-Glu-Arg-Nle-Phe-Leu- Ser-Phe-Pro-EDANS fluorogenic substrate at 5 uM by fluorogenic assay

Plasmepsin II, sequence (P46925 whole entry): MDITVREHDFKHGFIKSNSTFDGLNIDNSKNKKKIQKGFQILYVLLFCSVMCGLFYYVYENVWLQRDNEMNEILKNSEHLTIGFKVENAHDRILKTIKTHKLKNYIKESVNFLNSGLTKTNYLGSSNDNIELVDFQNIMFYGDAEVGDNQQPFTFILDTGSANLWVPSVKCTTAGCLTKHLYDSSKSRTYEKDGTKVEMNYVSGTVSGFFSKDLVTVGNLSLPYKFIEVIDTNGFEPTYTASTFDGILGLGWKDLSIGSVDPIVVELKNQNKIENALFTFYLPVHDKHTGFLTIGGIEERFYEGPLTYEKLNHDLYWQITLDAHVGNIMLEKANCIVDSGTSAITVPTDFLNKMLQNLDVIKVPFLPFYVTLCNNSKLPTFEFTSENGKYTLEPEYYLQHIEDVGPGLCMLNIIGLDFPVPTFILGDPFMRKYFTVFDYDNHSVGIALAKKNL
Cathepsin D (Homo sapiens), sequence (P07339 65-162 limits assumed): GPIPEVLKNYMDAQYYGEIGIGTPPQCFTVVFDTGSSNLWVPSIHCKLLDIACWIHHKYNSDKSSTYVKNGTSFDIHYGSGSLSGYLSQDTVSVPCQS
Cathepsin D (Homo sapiens), sequence (P07339 169-412 limits assumed): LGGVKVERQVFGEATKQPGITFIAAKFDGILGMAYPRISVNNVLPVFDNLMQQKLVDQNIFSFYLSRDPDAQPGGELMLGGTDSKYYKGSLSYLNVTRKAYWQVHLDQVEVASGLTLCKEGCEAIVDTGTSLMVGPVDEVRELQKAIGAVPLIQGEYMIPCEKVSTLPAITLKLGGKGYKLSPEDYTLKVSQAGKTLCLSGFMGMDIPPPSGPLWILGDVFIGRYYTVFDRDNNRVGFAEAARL
Plasmepsin II (Plasmodium falciparum), sequence (P46925 125-453 limits assumed): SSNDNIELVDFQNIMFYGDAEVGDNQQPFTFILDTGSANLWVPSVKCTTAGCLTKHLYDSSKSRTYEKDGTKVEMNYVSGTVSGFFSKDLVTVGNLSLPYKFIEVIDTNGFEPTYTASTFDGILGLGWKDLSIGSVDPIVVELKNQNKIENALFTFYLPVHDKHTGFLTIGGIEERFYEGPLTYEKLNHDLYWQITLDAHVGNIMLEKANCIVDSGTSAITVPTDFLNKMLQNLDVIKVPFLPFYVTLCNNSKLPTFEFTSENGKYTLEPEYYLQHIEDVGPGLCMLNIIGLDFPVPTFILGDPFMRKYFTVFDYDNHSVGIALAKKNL

| IC50 (Plasmepsin II) [µM] | Ki (Plasmepsin II) [µM] | inhibition [1] [%] | IC50 (Plasmodium falciparum [2]) [µM] | IC50 [3] [µM] | inhibition [5] [%] | inhibition (Plasmodium falciparum [6]) [%] | SMILES | Ki [3] [µM] | inhibition at 16 µM (Plasmodium falciparum [4]) [%] |
| --- | --- | --- | --- | --- | --- | --- | --- | --- | --- |
| 7 | 4.6 | 35 | 9.6 | 6.3 | – | – | Cc1ccc(NC(=S)N(Cc2ccc3c(c2)OCO3)Cc2cc3cccc(C)c3[nH]c2=O)cc1 | 5.5 | – |
| – | – | – | – | – | – | – | COc1ccc(-c2cc(-c3ccc(Cl)cc3)c(C#N)c(S[C@H](C)C(=O)Nc3ccc(C(C)=O)cc3)n2)cc1 | – | 32 |
| 21.3 | 10.6 | 12 | 2.21 | 26 | – | – | CC(C)CCNC(=O)[C@H](c1c[nH]c2ccccc12)N(C(=O)c1snc(C(N)=O)c1N)c1ccc2c(c1)OCO2 | 20 | – |
| 11.5 | 8 | 12 | 3.7 | 15 | – | – | CCCCOc1cccc(-c2cc(C(=O)N/N=C(\C)c3cccc(NC(=O)C(C)(C)C)c3)c3ccccc3n2)c1 | 13 | – |
| – | – | – | 12 | – | – | – | O=C(NCCNC(=O)/C(=C\c1ccco1)NC(=O)c1ccccc1)/C(=C/c1ccco1)NC(=O)c1ccccc1 | – | – |
| – | – | 20 | 0.35 | – | 30 | 20 | CCOc1ccc(N(C(=O)c2snc(C(=O)NC3CCCCC3)c2N)[C@H](C(=O)NCCc2ccccc2)c2ccc(OC)cc2)cc1 | – | – |
| – | – | – | 40 | – | – | – | CCOc1cccc(-c2cc(C(=O)N/N=C/c3ccc(OC)c(CN4CCSCC4)c3)c3ccccc3n2)c1 | – | – |
| 10 | 7 | 35 | 5.24 | 9 | – | – | COC(=O)CCC(=O)N(CCN(Cc1ccccc1)C(=O)CCC(=O)OC)Cc1ccccc1 | – | – |
| 6.1 | 4 | 15 | 5 | 3.7 | – | – | CCOC(=O)c1ccc(/N=C2\S/C(=C\c3ccc(C(C)(C)C)cc3)C(=O)N2c2ccc(C(=O)OCC)cc2)cc1 | 3.23 | – |
| – | – | – | 24 | – | – | – | CCCCOc1ccc(-c2cc(C(=O)N/N=C(\C=C\c3ccc4c(c3)OCO4)c3ccc(OC)cc3)c3ccccc3n2)cc1 | – | – |
| 2.3 | 1.6 | 12 | 2.3 | 6.2 | – | – | COc1ccc(Cl)cc1NC(=O)c1sc2nc(-c3ccccc3)cc(-c3ccc(OCc4ccccc4)c(OC)c3)c2c1N | 5.4 | – |
| – | – | – | 1.24 | – | – | – | CCCCc1ccc(-c2cc(C(=O)Nc3scc(-c4cccnc4)c3C(=O)OC)c3cc(Br)ccc3n2)cc1 | – | – |
| – | – | – | 25 | – | – | – | COc1ccc([C@@H](C(=O)NC2CCCC2)N(C(=O)c2snc(C(N)=O)c2N)c2ccc(OC)cc2)cc1 | – | – |
| 2.4 | 1.2 | 10 | 2.18 | 0.62 | – | – | CCN(CC)c1ccc(/C=N/NC(=O)CSc2nc3ccccc3n2Cc2ccc(Cl)cc2)cc1 | 0.47 | – |
| 2.5 | 2 | 20 | 4.5 | 2.6 | – | – | CCN(CC)C(=O)c1sc(NC(=O)c2cc(-c3cccc(C)c3)nc3ccccc23)c(C(=O)OC)c1C | 2.5 | – |

Reference: ChEMBL document CHEMBL1777683, “Identification of plasmepsin inhibitors as selective anti-malarial agents using ligand based drug design” (Bioorg Med Chem Lett, 2011)
